Among the data in ChEMBL document CHEMBL1122352, “Synthesis and antitumor activity of 2-beta-D-ribofuranosylselenazole-4-carboxamide and related derivatives” (1983) are IC50, ILS and MLS values, retold here.

Type in all cases: functional
The test system of assay [1] is L1210. Nature of the assay: Evaluated for cytotoxicity to L1210 cells. As to conditions: Mus musculus, read-out: ID50 (the source's name).
Assay [2] deals with Mus musculus. Nature of the assay: Evaluated for increase in life span in mice inoculated with lewis lung carcinoma at a dose of 13 mg/kg.
Assay [3] deals with Mus musculus. Kind of assay: Evaluated for median life span in mice inoculated with lewis lung carcinoma at a dose of 13 mg/kg.
The test system of assay [4] is Mus musculus. Kind of assay: Evaluated for median life span in mice inoculated with lewis lung carcinoma at a dose of 20 mg/kg.
Assay [5] concerns Mus musculus. Nature of the assay: Evaluated for median life span in mice inoculated with lewis lung carcinoma at a dose of 33 mg/kg.
For assay [6], the system named is Mus musculus. Nature of the assay: Evaluated for median life span in mice inoculated with lewis lung carcinoma at a dose of 50 mg/kg.
Assay [7] has as its system Mus musculus. Nature of the assay: Evaluated for median life span in mice inoculated with lewis lung carcinoma at a dose of 75 mg/kg.
Assay [8] deals with Mus musculus. Nature of the assay: Evaluated for median life span in mice inoculated with lewis lung carcinoma at a dose of 9 mg/kg.
Assay [9] concerns L1210. Nature of the assay: Evaluated for cytotoxicity against L1210 cells. As to conditions: Mus musculus, read-out: ID50 (the source's name).
In assay [10] the test system is Mus musculus. Nature of the assay: Evaluated for increase in life span in mice inoculated with lewis lung carcinoma at a dose of 1.5 mg/kg (Experiment-2).
In assay [11] the test system is Mus musculus. Kind of assay: Evaluated for increase in life span in mice inoculated with lewis lung carcinoma at a dose of 100 mg/kg (Experiment-1).
Assay [12] concerns Mus musculus. Nature of the assay: Evaluated for increase in life span in mice inoculated with lewis lung carcinoma at a dose of 12 mg/kg (Experiment-1).
Assay [13] has as its system Mus musculus. Nature of the assay: Evaluated for increase in life span in mice inoculated with lewis lung carcinoma at a dose of 12 mg/kg (Experiment-2).
For assay [14], the system named is Mus musculus. Kind of assay: Evaluated for increase in life span in mice inoculated with lewis lung carcinoma at a dose of 24 mg/kg (Experiment-2).
Assay [15] deals with Mus musculus. Kind of assay: Evaluated for increase in life span in mice inoculated with lewis lung carcinoma at a dose of 25 mg/kg (Experiment-1).
For assay [16], the system named is Mus musculus. Nature of the assay: Evaluated for increase in life span in mice inoculated with lewis lung carcinoma at a dose of 3 mg/kg (Experiment-2).
Assay [17] relates to Mus musculus. Kind of assay: Evaluated for increase in life span in mice inoculated with lewis lung carcinoma at a dose of 50 mg/kg (Experiment-1).
Assay [18] deals with Mus musculus. Kind of assay: Evaluated for increase in life span in mice inoculated with lewis lung carcinoma at a dose of 6 mg/kg (Experiment-2).
Assay [19] deals with Mus musculus. Kind of assay: Evaluated for median life span in mice inoculated with lewis lung carcinoma at a dose of 1.5 mg/kg (Experiment-2).
In assay [20] the test system is Mus musculus. Nature of the assay: Evaluated for median life span in mice inoculated with lewis lung carcinoma at a dose of 100 mg/kg (Experiment-1).
The subject of assay [21] is Mus musculus. Kind of assay: Evaluated for median life span in mice inoculated with lewis lung carcinoma at a dose of 12 mg/kg (Experiment-1).
The subject of assay [22] is Mus musculus. Nature of the assay: Evaluated for median life span in mice inoculated with lewis lung carcinoma at a dose of 12 mg/kg (Experiment-2).
Assay [23] deals with Mus musculus. Nature of the assay: Evaluated for median life span in mice inoculated with lewis lung carcinoma at a dose of 200 mg/kg (Experiment-1).
The test system of assay [24] is Mus musculus. Nature of the assay: Evaluated for median life span in mice inoculated with lewis lung carcinoma at a dose of 24 mg/kg (Experiment-2).
Assay [25] concerns Mus musculus. Nature of the assay: Evaluated for median life span in mice inoculated with lewis lung carcinoma at a dose of 25 mg/kg (Experiment-1).
For assay [26], the system named is Mus musculus. Nature of the assay: Evaluated for median life span in mice inoculated with lewis lung carcinoma at a dose of 3 mg/kg (Experiment-2).
For assay [27], the system named is Mus musculus. Nature of the assay: Evaluated for median life span in mice inoculated with lewis lung carcinoma at a dose of 50 mg/kg (Experiment-1).
The subject of assay [28] is Mus musculus. Nature of the assay: Evaluated for median life span in mice inoculated with lewis lung carcinoma at a dose of 6 mg/kg (Experiment-2).
Another assay concerns P388. Kind of assay: Evaluated for cytotoxicity against P-388 cells. The conditions noted are these: Mus musculus, read-out: ID50 (the source's name).

Structures are written as SMILES.

By ILS is commonly meant the gain in survival time of treated over control animals, in per cent. Higher therefore signals a large benefit in survival.

On to `NC(=O)c1c[se]c([C@@H]2O[C@H](COP(=O)(O)O)[C@@H](O)[C@H]2O)n1`, for which, in the assay with L1210 [1], the IC50 came out at 390 nM. In the assay on Mus musculus [2], the ILS at 13 mg/kg worked out at 215%. The MLS was found to be 60 days with Mus musculus [3]; 12 days in the assay on Mus musculus [4]; 12.5 days in the assay with Mus musculus [5]; 12.5 days in the assay on Mus musculus [6]; 15.5 days with Mus musculus [7]; 12.5 days in the assay with Mus musculus [8].
In the case of `NC(=O)c1c[se]c([C@@H]2O[C@H](CO)[C@@H](O)[C@H]2O)n1`, the IC50 with L1210 [9] amounted to 400 nM; in the assay on P388 it was 300 nM. For the same compound, in the assay with Mus musculus [10], the ILS at 1.5 mg/kg stood at 10%. For the same compound, the ILS at 100 mg/kg with Mus musculus [11] was 20%. Also, the ILS at 12 mg/kg in the assay with Mus musculus [12] worked out at 255%; with Mus musculus [13] it was 197%. The compound also came in with an ILS at 24 mg/kg in the assay on Mus musculus [14] of 197%. The compound also returned an ILS at 25 mg/kg in the assay on Mus musculus [15] of 255%. In the assay with Mus musculus [16], this compound returned an ILS at 3 mg/kg of 53%. The compound also gave an ILS at 50 mg/kg with Mus musculus [17] of 255%. The compound further showed an ILS at 6 mg/kg with Mus musculus [18] of 197%. In addition, the MLS came to 22 days in the assay on Mus musculus [19]; 20.3 days with Mus musculus [20]; 60 days in the assay on Mus musculus [21]; 60 days in the assay with Mus musculus [22]; 10.7 days in the assay with Mus musculus [23]; 60 days with Mus musculus [24]. The MLS in the assay on Mus musculus [25] stood at 60 days; in the assay on Mus musculus [26] it was 31 days; with Mus musculus [27] it was 60 days; with Mus musculus [28], 60 days.
For the compound `NC(=O)c1csc([C@@H]2O[C@H](CO)[C@@H](O)[C@H]2O)n1` [TIAZOFURIN], the IC50 in the assay on L1210 [9] came to 1950 nM.
